Results published in US10501516B2, “Peptide compound” (TAKEDA PHARMACEUTICAL COMPANY LIMITED, priority 2016, dated 2019).
Square brackets hold non-standard residues; d marks the D form. Side chains are listed from the residue outwards. Peptide text beside a SMILES is read from it. * marks the point of attachment. C18 diacid = O=C(O)CCCCCCCCCCCCCCCCC(=O)*; NMeY = CN[C@@H](Cc1ccc(O)cc1)C(=O)O; Palmitoyl = CCCCCCCCCCCCCCCC(=O)*; αMeF = C[C@](N)(Cc1ccccc1)C(=O)O; Iva = CC[C@](C)(N)C(=O)O; Aib = CC(C)(N)C(=O)O

Experiments:
human GIPR = target: T1, human GIPR (Homo sapiens, UniProt P48546); experiment: Reporter assay of human GIPR gene (agonist activity, intracellular cAMP as index); type: cell-based; conditions: Cre-luc reporter, hGIPR/CHO-K1 cells, 4 hours
T1 construct: expressed in transfected cells; host or cells: CHO-K1 Cre-luc reporter cells (hGIPR/CHO-K1, also called hGIPR/CRE-LUC/CHO-K1)
T1 sequence (P48546 22-466): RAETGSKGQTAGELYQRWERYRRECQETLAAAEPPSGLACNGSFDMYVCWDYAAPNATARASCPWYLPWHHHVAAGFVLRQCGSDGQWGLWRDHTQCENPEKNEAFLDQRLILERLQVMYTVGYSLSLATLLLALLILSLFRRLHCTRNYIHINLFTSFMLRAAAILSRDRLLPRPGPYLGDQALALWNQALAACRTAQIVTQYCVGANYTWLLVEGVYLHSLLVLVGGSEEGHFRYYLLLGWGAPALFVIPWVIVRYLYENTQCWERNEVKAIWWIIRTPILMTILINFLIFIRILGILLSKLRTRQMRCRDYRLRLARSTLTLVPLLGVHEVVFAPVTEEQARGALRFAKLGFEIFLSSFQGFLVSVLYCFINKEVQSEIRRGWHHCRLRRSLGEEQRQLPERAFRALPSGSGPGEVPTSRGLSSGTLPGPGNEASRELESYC
Excerpt: (§1) Evaluation of Agonist Activity Against Human NPY2R, Human GIPR, and Human GLP-1R Using Change in Intracellular cAMP Concentration as Index
The human GIPR gene having a sequence identical to the sequence of GenBank Accession No. U39231 was cloned into pMSRα-neo vector to prepare hGIPR/pMSRα-neo. This vector was introduced to the Cre-luc reporter cells obtained in (1) to obtain transformants. Next, a cell line induced to express luciferase, i.e., hGIPR/CHO-K1 cells, were selected from the obtained transformants by the addition of GIP.
The hGIPR/CRE-LUC/CHO-K1 cells or the hGLP-1R/Crel cells were inoculated at a cell density of 25 μL/well (5,000 cells/well) to a 384-well white plate (Corning, 3570), and cultured overnight in Ham F12 medium containing 10% fetal bovine serum, 100 U/mL penicillin and 100 μg/mL streptomycin in a CO2 incubator of 37° C. On the next day, a medium containing a test compound was added at a concentration of 5 μL/well to the cells, and the resultant cells were incubated for 4 hours in a CO2 incubator of 37° C. to give the final concentration of 1 μM. SteadyGlo (Promega) was added thereto at a concentration of 30 μL/well, and the mixture was shaken with light shielded. After 30 minutes, the luciferase activity was measured using a plate reader Envision (PerkinElmer). For the GIPR agonist activity, the luciferase activity in the presence of 10 μM GIP was defined as 100%, and the luciferase activity from the addition of DMSO instead of the test compound was defined as 0%. The GIPR agonist activity was calculated with a rise in intracellular cAMP concentration as an index.

male C57BL/6J mouse = experiment: Evaluation of feeding suppressive action in mice; type: in vivo; conditions: 30 nmol/kg s.c. once a day for 3 days; 3-days cumulative food consumption vs solvent control
Outline: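 Male C57BL/6J mice, 8-9 weeks, ad libitum fed, given compound (30 or 100 nmol/2 mL in 10% DMSO saline) s.c. at 2 mL/kg once daily for 3 days. Cumulative 3-day food consumption measured by weighing; suppression rate (%) calculated relative to vehicle controls.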

human NPY2R = target: T2, human NPY2R (Homo sapiens, UniProt P49146); experiment: Reporter assay of human NPY2R gene (agonist activity, decrease in intracellular cAMP as index); type: cell-based; conditions: Cre-luc reporter, hNPY2R CHO-K1 cells, forskolin 1.2 μM, 4 hours; read-out: Agonist activity (EC50) hY2R
T2 construct: expressed in transfected cells; host or cells: CHO-K1 Cre-luc reporter cells (pAKKO1114/hNPY2R#481 No. 88 cells)
T2 sequence (P49146 1-381): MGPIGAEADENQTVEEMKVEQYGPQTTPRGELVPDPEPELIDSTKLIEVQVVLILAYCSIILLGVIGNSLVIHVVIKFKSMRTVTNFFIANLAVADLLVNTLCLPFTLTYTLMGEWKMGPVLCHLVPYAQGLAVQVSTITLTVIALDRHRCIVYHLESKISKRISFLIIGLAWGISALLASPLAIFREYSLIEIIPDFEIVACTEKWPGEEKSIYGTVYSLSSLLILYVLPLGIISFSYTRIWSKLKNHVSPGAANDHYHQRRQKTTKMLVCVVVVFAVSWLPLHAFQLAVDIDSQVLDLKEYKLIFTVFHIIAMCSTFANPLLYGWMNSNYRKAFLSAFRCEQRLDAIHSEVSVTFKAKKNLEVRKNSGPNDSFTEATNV
Excerpt: as §1
The human NPY2R gene having a sequence identical to the sequence of GenBank Accession No. AC104407 was cloned into pAKKO1114 vector to prepare hNPY2R/pAKKO1114. Next, pGL4.29 (Promega) was introduced to CHO-K1 cells, which were then screened with hygromycin to construct Cre-luc reporter cells. These cells were cotransfected with hNPY2R/pAKKO1114 and pcDNA3.1 (Life Technologies Corp.), and the cells were screened with geneticin. Next, a cell line induced to express luciferase, i.e., pAKKO1114/hNPY2R#481 No. 88 cells, were selected from the obtained transformants by the addition of human PYY (3-36).
The pAKKO1114/hNPY2R#481 No. 88 cells were inoculated at a cell density of 25 μL/well (5,000 cells/well) to a 384-well white plate (Corning, 3570), and cultured overnight in Ham F12 medium containing 10% fetal bovine serum, 100 U/mL penicillin and 100 μg/mL streptomycin in a CO2 incubator of 37° C. On the next day, the medium was removed, and an assay medium (Ham F12 medium containing 0.1% BSA, 100 U/mL penicillin and 100 μg/mL streptomycin) containing forskolin (final concentration: 1.2 μM) was added at a concentration of 25 μL/well to the cells. Next, an assay medium containing a test compound was added at a concentration of 5 μL/well to the cells, and the resultant cells were incubated for 4 hours in a CO2 incubator of 37° C. to give the final concentration of 1 μM. SteadyGlo (Promega) was added thereto at a concentration of 30 μL/well, and the mixture was left standing for 20 minutes with light shielded. The luciferase activity was measured using a plate reader Envision (PerkinElmer). The luciferase activity from the addition of DMSO was defined as 100%, and the luciferase activity from the addition of 1 μM human PYY(3-36) instead of the test compound was defined as 0%. The NPY2R agonist activity was calculated with a decrease in intracellular cAMP concentration as an index.

Compound	EC50 (human GIPR) [nM]	Rate of feeding suppression (%) (male C57BL/6J mouse)	EC50 (human NPY2R) [nM]
CCCCCCCCCCCCCCCC(=O)NCC(=O)NCC(=O)NCC(=O)NCC(=O)NCCCC[C@H](NC(=O)[C@H](CC(=O)O)NC(=O)[C@H](CO)NC(=O)[C@@H](NC(=O)[C@](C)(Cc1ccccc1)NC(=O)[C@@H](NC(=O)CNC(=O)[C@H](CCC(=O)O)NC(=O)C(C)(C)NC(=O)[C@@H](N)Cc1ccc(O)cc1)[C@@H](C)O)[C@@H](C)O)C(=O)NC(C)(C)C(=O)N[C@H](C(=O)NC(C)(C)C(=O)N[C@@H](CC(C)C)C(=O)N[C@@H](CC(=O)O)C(=O)N[C@@H](CCCCN)C(=O)N[C@@H](CCC(N)=O)C(=O)N[C@@H](CCCNC(=N)N)C(=O)N[C@@H](CCC(N)=O)C(=O)N[C@@](C)(CC)C(=O)N[C@@H](CCC(=O)O)C(=O)N[C@@H](Cc1ccccc1)C(=O)N[C@H](C(=O)N[C@@H](CCCNC(=N)N)C(=O)N[C@@H](Cc1c[nH]cn1)C(=O)N[C@@H](CC(C)C)C(=O)N[C@@H](CC(C)C)C(=O)N[C@@H](CC(N)=O)C(=O)N[C@@H](CCCCN)C(=O)NC(C)(C)C(=O)N[C@H](C(=O)N[C@@H](CCCNC(=N)N)C(=O)N[C@@H](CCC(N)=O)C(=O)N[C@@H](CCCNC(=N)N)C(=O)N[C@@H](Cc1ccc(O)cc1)C(N)=O)[C@@H](C)O)C(C)C)[C@@H](C)CC [Example 7] (H-Y[Aib]EGT[αMeF]TSDK([Gly-Gly-Gly-Gly-Palmitoyl])[Aib]I[Aib]LDKQRQ[Iva]EFVRHLLNK[Aib]TRQRY-NH2)	0.068	−37.6	0.1
CCCCCCCCCCCCCCCC(=O)NCC(=O)NCC(=O)NCC(=O)NCC(=O)NCCCC[C@H](NC(=O)[C@H](CC(=O)O)NC(=O)[C@H](CO)NC(=O)[C@@H](NC(=O)[C@](C)(Cc1ccccc1)NC(=O)[C@@H](NC(=O)CNC(=O)[C@H](CCC(=O)O)NC(=O)C(C)(C)NC(=O)[C@H](Cc1ccc(O)cc1)NC)[C@@H](C)O)[C@@H](C)O)C(=O)NC(C)(C)C(=O)N[C@H](C(=O)NC(C)(C)C(=O)N[C@@H](CC(C)C)C(=O)N[C@@H](CC(=O)O)C(=O)N[C@@H](CCCCN)C(=O)N[C@@H](CCC(N)=O)C(=O)N[C@@H](CCCNC(=N)N)C(=O)N[C@@H](CCC(N)=O)C(=O)N[C@@](C)(CC)C(=O)N[C@@H](CCC(=O)O)C(=O)N[C@@H](Cc1ccccc1)C(=O)N[C@H](C(=O)N[C@@H](CCCNC(=N)N)C(=O)N[C@@H](Cc1c[nH]cn1)C(=O)N[C@@H](CC(C)C)C(=O)N[C@@H](CC(C)C)C(=O)N[C@@H](CC(N)=O)C(=O)N[C@@H](CCCCN)C(=O)NC(C)(C)C(=O)N[C@H](C(=O)N[C@@H](CCCNC(=N)N)C(=O)N[C@@H](CCC(N)=O)C(=O)N[C@@H](CCCNC(=N)N)C(=O)N[C@@H](Cc1ccc(O)cc1)C(N)=O)[C@@H](C)O)C(C)C)[C@@H](C)CC [Example 9] (H-[NMeY][Aib]EGT[αMeF]TSDK([Gly-Gly-Gly-Gly-Palmitoyl])[Aib]I[Aib]LDKQRQ[Iva]EFVRHLLNK[Aib]TRQRY-NH2)	0.068	–	0.1
CCCCCCCCCCCCCCCC(=O)NCC(=O)NCC(=O)NCC(=O)NCC(=O)NCCCC[C@H](NC(=O)[C@H](CC(=O)O)NC(=O)[C@H](CO)NC(=O)[C@@H](NC(=O)[C@](C)(Cc1ccccc1)NC(=O)[C@@H](NC(=O)CNC(=O)[C@H](CCC(=O)O)NC(=O)C(C)(C)NC(=O)[C@H](Cc1ccc(O)cc1)NC)[C@@H](C)O)[C@@H](C)O)C(=O)N[C@@H](C)C(=O)N[C@H](C(=O)NC(C)(C)C(=O)N[C@@H](CC(C)C)C(=O)N[C@@H](CC(=O)O)C(=O)N[C@@H](CCCCN)C(=O)N[C@@H](CCC(N)=O)C(=O)N[C@@H](CCCNC(=N)N)C(=O)N[C@@H](CCC(N)=O)C(=O)N[C@@](C)(CC)C(=O)N[C@@H](CCC(=O)O)C(=O)N[C@@H](Cc1ccccc1)C(=O)N[C@H](C(=O)N[C@@H](CCCNC(=N)N)C(=O)N[C@@H](Cc1c[nH]cn1)C(=O)N[C@@H](CC(C)C)C(=O)N[C@@H](CC(C)C)C(=O)N[C@@H](CC(N)=O)C(=O)N[C@@H](CCCCN)C(=O)NC(C)(C)C(=O)N[C@H](C(=O)N[C@@H](CCCNC(=N)N)C(=O)N[C@@H](CCC(N)=O)C(=O)N[C@@H](CCCNC(=N)N)C(=O)N[C@@H](Cc1ccc(O)cc1)C(N)=O)[C@@H](C)O)C(C)C)[C@@H](C)CC [Example 13] (H-[NMeY][Aib]EGT[αMeF]TSDK([Gly-Gly-Gly-Gly-Palmitoyl])AI[Aib]LDKQRQ[Iva]EFVRHLLNK[Aib]TRQRY-NH2)	0.074	−41.0	0.1
CC[C@H](C)[C@H](NC(=O)C(C)(C)NC(=O)[C@H](CCCCNC(=O)CNC(=O)CNC(=O)CNC(=O)CNC(=O)CCCCCCCCCCCCCCCCC(=O)O)NC(=O)[C@H](CC(=O)O)NC(=O)[C@H](CO)NC(=O)[C@@H](NC(=O)[C@](C)(Cc1ccccc1)NC(=O)[C@@H](NC(=O)CNC(=O)[C@H](CCC(=O)O)NC(=O)C(C)(C)NC(=O)[C@@H](N)Cc1ccc(O)cc1)[C@@H](C)O)[C@@H](C)O)C(=O)NC(C)(C)C(=O)N[C@@H](CC(C)C)C(=O)N[C@@H](CC(=O)O)C(=O)N[C@@H](CCCCN)C(=O)N[C@@H](CCC(N)=O)C(=O)N[C@@H](C)C(=O)N[C@@H](CCC(N)=O)C(=O)N[C@@](C)(CC)C(=O)N[C@@H](CCC(=O)O)C(=O)N[C@@H](Cc1ccccc1)C(=O)N[C@H](C(=O)N[C@@H](CCCNC(=N)N)C(=O)N[C@@H](Cc1c[nH]cn1)C(=O)N[C@@H](CC(C)C)C(=O)N[C@@H](CC(C)C)C(=O)N[C@@H](CC(N)=O)C(=O)N[C@@H](CCCCN)C(=O)NC(C)(C)C(=O)N[C@H](C(=O)N[C@@H](CCCNC(=N)N)C(=O)N[C@@H](CCC(N)=O)C(=O)N[C@@H](CCCNC(=N)N)C(=O)N[C@@H](Cc1ccc(O)cc1)C(N)=O)[C@@H](C)O)C(C)C [Example 28] (H-Y[Aib]EGT[αMeF]TSDK([Gly-Gly-Gly-Gly-C18 diacid])[Aib]I[Aib]LDKQAQ[Iva]EFVRHLLNK[Aib]TRQRY-NH2)	0.074	–	2.4
